Legend:
[1] = system: NCI-H929 human plasmacytoma cells; assay: CellTiter-Glo luminescent cell viability assay, NCI-H929; type: cell-based; conditions: 48 hours, 20 to 0.1 μM
Experimental: (§1) Cell viability of either MCF7 human breast tumor cells (American Type Culture Collection catalog #HTB 22) or NCI-H929 human plasmacytoma cells (ATCC catalog #CRL-9068) was assessed using the Promega CellTiter-Glo luminescent cell viability assay according to manufacturer's instructions. In brief, cells were plated at 10,000 cells per well in a clear bottom white 96 well microtiter plate (Costar catalog #3604) in 100 μL of cell growth medium. Compounds were then added to the cells to give final concentrations of compound ranging from 20 to 0.1 μM. Cells were incubated 48 hours after which 100 μL per well of celltiter-glo reagent was added and luminescence was measured in a BMG polarstar plate luminometer. A plot of counts per minute versus log concentration of compounds was fitted to a sigmoidal dose response curve using Graphpad Prism software to generate IC50 values.

[2] = system: MCF7 human breast tumor cells; assay: CellTiter-Glo luminescent cell viability assay, MCF7; type: cell-based; conditions: 48 hours, 20 to 0.1 μM
Experimental: as §1

[3] = molecular target: T1, human IGF1R kinase domain (Homo sapiens, UniProt P08069); assay: IGF1R tyrosine phosphorylation inhibition, Alphascreen phosphotyrosine PT66 assay; type: biochemical; conditions: recombinant kinase domain, 1 hour co-incubation, 20 to 0.1 μM
T1 construct: human IGF1R precursor protein corresponding to the amino acids positions 974 through 1293; 6xHis; made in house; host or cells: SF9 insect cells, recombinant baculovirus (Bac-to-Bac System)
Experimental: Inhibition of IGF1R tyrosine phosphorylation was measured in the Alphascreen phosphotyrosine PT66 assay kit (Perkin Elmer Life sciences, Catalog number 6760602) according to the manufacturer's instructions. As a source of enzymatically active IGF1r kinase for this assay, SF9 insect cells were infected with recombinant baculovirus (Bac-to-Bac System, Invitrogen, Carlsbad, Calif.) encoding 6×His-tagged kinase domain portion of human IGF1R precursor protein corresponding to the amino acids positions 974 through 1293 (Abbott et al., 1992, J. Biol. Chem. 267:10759-10763) and recombinant kinase protein was purified to homogeneity using two-step chromatography on immobilized Ni^2+ resin (Ni-NTA) and ion-exchange Q-Sepharose column. Biotinylated poly glu-tyr 4:1 (CIS bio-international, catalog number 61GT0BLA) was used for the kinase substrate. Compounds were serially diluted to give a concentration range from 20 to 0.1 μM and co-incubated with IGF1r kinase, biotinylated peptide substrate and alphascreen components for 1 hour and then read in a Perkin-Elmer alphafusion plate reader. A plot of counts per minute versus log concentration of compounds was fitted to a sigmoidal dose response curve using Graphpad Prism software to generate IC50 values (see FIG. 1 for an example).

T1 sequence (P08069 974-1293): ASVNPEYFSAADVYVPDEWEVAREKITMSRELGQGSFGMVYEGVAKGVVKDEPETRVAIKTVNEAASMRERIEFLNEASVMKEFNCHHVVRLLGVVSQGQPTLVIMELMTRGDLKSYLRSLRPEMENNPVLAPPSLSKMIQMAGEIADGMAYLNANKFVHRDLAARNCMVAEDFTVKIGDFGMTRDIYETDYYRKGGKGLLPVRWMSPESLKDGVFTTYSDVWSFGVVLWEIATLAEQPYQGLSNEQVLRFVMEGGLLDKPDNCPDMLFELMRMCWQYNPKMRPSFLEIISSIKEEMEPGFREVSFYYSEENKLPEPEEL

Row | Compound | IC50 [1] [µM] | IC50 [2] [µM] | IC50 [3] [µM]
1 | CN1CCN(Cc2cccc(NC(=O)c3cc(N)n(-c4ncc5c(n4)-c4ccccc4CC5)n3)c2)CC1 | 10 to 15 | 10 to 15 | ≤ 5
2 | COc1ccc2c(c1)OCc1cnc(-n3cc(C(=O)NCCCc4ccncc4)c(N)n3)nc1-2 | 10 to 15 | 10 to 15 | 10 to 15
3 | Cc1cc(N2CCN(C)CC2)cc2nc(-c3nc4cc(N5CCN(C)CC5)cc(C)c4[nH]3)[nH]c12 | 10 to 15 | > 25 | ≤ 5
4 | CCN1CCC2(CCN(CCc3ccc(NC(=O)c4ccc5[nH]c(-c6cc(-c7cccnc7O)ccc6O)nc5c4)cc3)C2)C1 (stereo not drawn) [drawing 1786] | ≤ 5 | 5 to 10 | ≤ 5
5 | CN1CCCC2(CCCN(CCc3ccc(NC(=O)c4ccc5nc(-c6cc(-c7cccnc7O)ccc6O)[nH]c5c4)cc3)C2)C1 (stereo not drawn) [drawing 1788] | ≤ 5 | 10 to 15 | ≤ 5

Next, values leading:

Row | IC50 [1] [µM] | IC50 [2] [µM] | IC50 [3] [µM] | Compound
6 | ≤ 5 | 5 to 10 | ≤ 5 | CCN1CCC2(CCN(c3cc(C)c4nc(-c5c(NC[C@@H](O)c6cccc(Cl)c6)cc[nH]c5=O)[nH]c4c3)C2)C1 (stereo partly drawn)
7 | ≤ 5 | 10 to 15 | ≤ 5 | CCN1CCC2(CCN(CCc3ccc(NC(=O)c4ccc5[nH]c(-c6cc(-c7cccnc7OC)ccc6O)nc5c4)cc3)C2)C1 (stereo not drawn)
8 | ≤ 5 | 5 to 10 | ≤ 5 | COc1ncccc1-c1ccc(O)c(-c2nc3ccc(C(=O)Nc4ccc(CCN5CCCC6(CCCN(C)C6)C5)cc4)cc3[nH]2)c1 (stereo not drawn)
9 | ≤ 5 | 10 to 15 | ≤ 5 | COc1ncccc1-c1ccc2[nH]c(-c3nc4cc(N5CCN(C)CC5)ccc4[nH]3)nc2c1
10 | ≤ 5 | 10 to 15 | ≤ 5 | COc1ncccc1-c1ccc2[nH]c(-c3nc4cc(C(=O)Nc5ccc(CCN6CCN(C)CC6)cc5)ccc4[nH]3)nc2c1

From US8629147B2, “Heterocyclic compounds useful in the treatment of neoplastic diseases, inflammatory disorders and immunomodulatory disorders” (ChemBridge Corporation, priority 2005, dated 2014)
